Source: PubChem BioAssay (NCI)
Several values for one entry are separate records, joined by “and”; a condition that tells them apart may be missing. Equal entries are not always repeated.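 Following 48 hours of exposure in 96-well plates, responses at five concentrations were used to interpolate endpoints linearly. Here, GI50 denotes the concentration required for 50% inhibition of growth. TGI: concentration producing complete growth inhibition.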

Assays:
Experiment in all cases: NCI-60 cell line screen, 48 h
NCI-H226 lung = system: NCI-H226 lung
SN12C renal = system: SN12C renal
EKVX NSCLC = system: EKVX NSCLC
HOP-92 NSCLC = system: HOP-92 NSCLC
KM12 colon = system: KM12 colon
OVCAR-8 ovarian = system: OVCAR-8 ovarian
NCI-H23 lung = system: NCI-H23 lung
HOP-62 NSCLC = system: HOP-62 NSCLC
RPMI-8226 leukemia = system: RPMI-8226 leukemia
SR leukemia = system: SR leukemia

Compound | GI50 (NCI-H226 lung) | TGI (NCI-H226 lung) | GI50 (SN12C renal) | TGI (SN12C renal) | GI50 (EKVX NSCLC) | TGI (EKVX NSCLC) | GI50 (HOP-92 NSCLC) | TGI (HOP-92 NSCLC) | GI50 (KM12 colon) | TGI (KM12 colon) | GI50 (OVCAR-8 ovarian) | TGI (OVCAR-8 ovarian) | GI50 (NCI-H23 lung) | TGI (NCI-H23 lung) | GI50 (HOP-62 NSCLC) | TGI (HOP-62 NSCLC) | GI50 (RPMI-8226 leukemia) | TGI (RPMI-8226 leukemia) | GI50 (SR leukemia) | TGI (SR leukemia)
COc1ccc(-c2ccc(/C=N/n3c(COc4ccccc4Cl)nn(CN4CCN(C)CC4)c3=S)o2)c([N+](=O)[O-])c1 | 15.6 µM | 43.5 µM | 17.9 µM | 35.2 µM | 21.5 µM | 70.5 µM | 21000 nM | 70.7 µM | 11900 nM | 31.7 µM | 17.3 µM | 42.2 µM | 16.3 µM | 31 µM | 21700 nM | 37 µM | – | – | – | –
CC(=O)c1c(C(F)(F)F)n([O-])c2ccc(Cl)cc2[n+]1=O | 1.4 µM | 3.43 µM | 0.99 µM | 2.52 µM | 0.818 µM | 2.29 µM | 1230 nM | 2.9 µM | 364 nM | 2.39 µM | 3.66 µM | 20.4 µM | 1.72 µM | 6.64 µM | 490 nM | 1.86 µM | < 0.0422 µM | 0.171 µM | – | –
CSC(C1c2ccccc2N(C)C2=NC(=O)N(C)C(=O)C21Cl)S(=O)(=O)c1ccc(C)cc1 (configuration not stated) | – | > 100 µM | – | > 100 µM | – | > 100 µM | – | 59.9 µM | – | > 100 µM | – | 46.3 µM | – | 83.5 µM | – | > 100 µM | – | 57.8 µM | – | –
Cc1ccc(C2NC(=S)NC3=C2CCOc2c3ccc3ccccc23)cc1 (configuration not stated) | > 100 µM | > 100 µM | > 100 µM | > 100 µM | – | – | 39800 nM | > 100 µM | 8250 nM | > 100 µM | > 100 µM | > 100 µM | > 100 µM | > 100 µM | > 100000 nM | > 100 µM | – | – | – | –
CCC(C)n1cc(C)c2c(C(=O)NCc3c(C)cc(C)[nH]c3=O)cc(Br)cc21 (configuration not stated) | 57.5 µM | > 100 µM | 55.6 µM | > 100 µM | – | – | – | – | 38100 nM | > 100 µM | 63.7 µM | > 100 µM | 76.3 µM | > 100 µM | 65200 nM | > 100 µM | 24.8 µM | 68 µM | 32.9 µM | > 100 µM
CC/C=C1\N=C(c2ccc(Cl)cc2)OC1=O | – | > 100 µM | – | > 100 µM | – | > 100 µM | – | > 100 µM | – | > 100 µM | – | > 100 µM | – | > 100 µM | – | > 100 µM | – | > 100 µM | – | –
Cc1cc(N(CCC#N)S(C)(=O)=O)ccc1C=O | – | > 100 µM | – | > 100 µM | – | – | – | – | – | > 100 µM | – | > 100 µM | – | > 100 µM | – | > 100 µM | – | > 100 µM | – | > 100 µM
N#CC(C(=O)/C(=N\Nc1nc(=S)[nH]n1N)C(C#N)c1ccc(Cl)cc1)c1ccc(Cl)cc1 (configuration not stated) | – | > 100 µM | – | > 100 µM | – | > 100 µM | – | > 100 µM | – | > 100 µM | – | > 100 µM | – | > 100 µM | – | > 100 µM | – | > 100 µM | – | –
CCCN(CCCC(NC(C)=O)C(=O)NCc1ccccc1)C(=O)NC (configuration not stated) | – | > 100 µM | – | > 100 µM | – | > 100 µM | – | > 100 µM | – | > 100 µM | – | > 100 µM | – | > 100 µM | – | > 100 µM | – | > 100 µM | – | –
CC(=O)N1CC(Nc2ccc(OC(F)(F)F)cc2)=CC1=O | 3.98 µM | 55.9 µM | 7.95 µM | > 100 µM | – | – | – | – | 562 nM | 25.1 µM | 3.63 µM | > 100 µM | 4.93 µM | > 100 µM | 3510 nM | > 100 µM | 2.67 µM | > 100 µM | 0.532 µM | 52.2 µM
COc1ccc(/C(=N/NC(=O)NN)C(c2ccc(OC)cc2)C2(O)CNc3c(Cl)cc(Cl)cc32)cc1 (configuration not stated) | – | > 100 µM | – | > 100 µM | – | > 100 µM | – | > 100 µM | – | > 100 µM | – | > 100 µM | – | > 100 µM | – | > 100 µM | – | > 100 µM | – | –
Cc1cccc(Oc2nccc(-c3c(-c4ccc(F)cc4)ncn3C3CCNCC3)n2)c1C | – | – | 9.16 µM | > 25 µM | > 14 µM | > 25 µM | – | – | 11200 nM | > 23.8 µM | 10.7 µM | > 23.5 µM | – | – | 4840 nM | 9.56 µM | 7.52 µM | > 18.6 µM | – | –
Cc1cc2cc3cc(C)c(N(C)C)cc3nc2cc1N(C)C | 3.19 µM | 24 µM | 3.22 µM | 29.3 µM | – | – | 1830 nM | 8.36 µM | 1660 nM | 6.22 µM | 2.83 µM | 28.1 µM | 1.8 µM | 20.8 µM | 5080 nM | 19.9 µM | 4.16 µM | > 100 µM | – | –
O=C(CC1(O)C(=O)Nc2ccccc21)c1ccccc1Cl (configuration not stated) | – | > 100 µM | – | > 100 µM | – | > 100 µM | – | > 100 µM | – | – | – | > 100 µM | – | > 100 µM | – | – | – | > 100 µM | – | –
Cc1ccc(NC(=O)c2cccc([N+](=O)[O-])c2O)c([N+](=O)[O-])c1 | – | 8.4 µM | – | 53.8 µM | – | 48.4 µM | – | 45.4 µM | – | 23 µM | – | 30.1 µM | – | 27.6 µM | – | 37.6 µM | – | > 100 µM | – | –
COc1cc(C(=O)/C=C/c2cc(C(=O)c3cc(OC)c(OC)c(OC)c3)ccc2OC)ccc1N | 2.14 µM | 7.39 µM | 1.62 µM | 4.92 µM | – | – | 2940 nM | > 100 µM | 552 nM | 5.37 µM | 0.846 µM | 6.12 µM | 1.42 µM | 4.1 µM | 2030 nM | 8.31 µM | 0.419 µM | 14.1 µM | – | –
CC1C[C@H](OC(N)=O)C(C)CC1=O (some centres not stated) | – | – | – | > 100 µM | – | > 100 µM | – | > 100 µM | – | > 100 µM | – | > 100 µM | – | > 100 µM | – | > 100 µM | – | > 100 µM | – | –
Cc1ccc(NC(=O)NC(=O)c2ccc([N+](=O)[O-])cc2[N+](=O)[O-])cc1Oc1ncc(Cl)cn1 | – | 2.53 µM | – | 16.6 µM | – | – | – | – | – | 6.83 µM | – | 6.7 µM | – | 9.39 µM | – | 12.5 µM | – | 3.08 µM | – | 16.9 µM
COc1ccc(C(O)/C(=N\NC(N)=S)c2nc3ccc([N+](=O)[O-])cc3[nH]c2=O)cc1OC (configuration not stated) | – | > 100 µM | – | – | – | > 100 µM | – | > 100 µM | – | > 100 µM | – | > 100 µM | – | > 100 µM | – | > 100 µM | – | > 100 µM | – | –
CC[C@H]1CN2CCc3cc(OC)c(OC)cc3[C@@H]2C[C@@H]1C[C@H]1NCCc2cc(O)c(OC)cc21 | – | 0.0593 µM and 0.0285 µM | – | 0.0787 µM and 0.552 µM | – | 0.0779 µM and 0.0344 µM and 0.0322 µM | – | 0.0742 µM and < 0.0176 µM | – | – | – | 0.0519 µM and < 0.0323 µM and 0.165 µM | – | 0.0584 µM and 0.115 µM | 24.5 nM and 29.4 nM | 0.0967 µM and 0.735 µM and 0.13 µM | – | 0.0779 µM and 0.0542 µM | – | –
COC(=O)c1ccc2c(c1)nc(-c1cc3ccccc3[nH]c1=O)n2-c1cc(C(C)(C)C)[nH]n1 | 16.5 µM | > 100 µM | > 23.7 µM | > 100 µM | 10 µM | > 100 µM | – | – | – | – | 2 µM | > 100 µM | 2.64 µM | > 100 µM | 996 nM | > 100 µM | 0.443 µM | – | 12.8 µM | > 100 µM
CS(=O)CCCCCN=C=S (configuration not stated) | 17.5 µM | 44.4 µM | 3.44 µM | 11.4 µM | 10.4 µM | 24.8 µM | 3550 nM | 9.52 µM | 3330 nM | 13 µM | 4.93 µM | 22.1 µM | 4.21 µM | 24.5 µM | 12500 nM | 29.4 µM | 3.79 µM | 14.5 µM | – | –
CC(=O)c1ccc(NC(=O)CSc2nnc(-c3cc(-c4ccc(C)cc4)nc4ccccc34)o2)cc1 | 2.39 µM | 6.37 µM | 2.15 µM | 5.45 µM | 3.13 µM | > 100 µM | 2590 nM | 6.3 µM | – | – | 2.28 µM | 4.9 µM | 3.73 µM | 61.3 µM | 2080 nM | 5.7 µM | 3.37 µM | > 100 µM | – | –
O=S(O)CCCCCSSCCCCSSCCCCCS(=O)O | – | – | – | > 100 µM | – | > 100 µM | – | > 100 µM | – | > 100 µM | – | > 100 µM | – | > 100 µM | – | > 100 µM | – | > 100 µM | – | –
COc1ccc(/C=C2\CCCCC2=O)cc1 | – | – | – | > 100 µM | – | > 100 µM | – | – | – | – | – | > 100 µM | – | > 100 µM | – | > 100 µM | – | – | – | –
CCn1cc(/C=C/C(C)c2cn(CC)c(=O)[nH]c2=O)c(=O)[nH]c1=O (configuration not stated) | – | – | – | > 100 µM | – | > 100 µM | – | > 100 µM | – | > 100 µM | – | > 100 µM | – | > 100 µM | – | > 100 µM | – | > 100 µM | – | –
COc1cc(/C=C/c2cc(/C=C/c3ccc(O)c(OC)c3)n(-c3c(C)cccc3C)c(=O)n2)ccc1O | 2.36 µM | 7.59 µM | 1.66 µM | > 100 µM | 1.86 µM | 6.73 µM | 2070 nM | 5.51 µM | 470 nM | 3.63 µM | 1.51 µM | 8.16 µM | 1.25 µM | 3.98 µM | 1080 nM | 2.76 µM | – | – | – | –
